≈ marks a conversion by molar mass, not a printed value.
Tests used:
[1] = system: MDA-MB-231 cells; assay: In vitro cytotoxicity (cell viability) assay; assay type: cell-based, human; conditions: MDA-MB-231, Dox concentration, treated 4 hours, grown 48 hours
Description: In vitro cytotoxicity of ICAM-Dox-LPs on TNBC cells was evaluated using a cell viability assay. Five thousand cells (MDA-MB-231, MDA-MB-436, and MDA-MB-157) were seeded in each well of a 96 well plate and incubated for 24 hours. Cells were treated with (1) ICAM-LP without Dox; (2) Free Dox; (3) non-specific IgG-Dox-LPs and (4) ICAM-Dox-LPs for 4 hours. Cells were rinsed twice with PBS and grown for 48 hours. Cell viability was determined by a Dojindo cell counting kit using the manufacturer's protocol (Rockville, Md.).

[2] = system: normal red blood cells; conditions: Li et al.; cited from earlier work
[3] = system: patient-derived NHL B cells; conditions: cited from earlier work
[4] = system: ICAM1 expression on MDA-MB-231 cell surface; assay: Flow cytometric analysis of ICAM1 surface expression pre- and post-MCD treatment; assay type: cell-based, human; conditions: MDA-MB-231, pre- and post-MCD treatment
From the text: In addition to the overexpression level, the organization of antigens on the cell membrane is another key factor driving differences in antibody-antigen binding behavior^11. AFM-detected adhesive events were also used to spatially map the binding forces on MDA-MB-231 (FIG. 2E) and MCF10A (FIG. 2F) cell surface. […] These “hot-spots” are predicted to be the primary binding sites for ICAM1 antibody-directed nanomedicine due to the high binding forces. ICAM1 molecules may be enriched in membrane lipid rafts of MDA-MB-231 cells to facilitate functional signaling^22. […] In order to determine whether ICAM1 adhesion forces are dependent on the organization of ICAM1 molecules in lipid rafts on the cell membrane, both MDA-MB-231 and MCF10A cells were treated with methyl-beta-cyclodextrin (MCD), a cholesterol-depleting drug that disrupts lipid rafts, and then the average binding force was re-measured. […]
10^6 cells were collected and rinsed twice through suspension-spin cycles. […] Cells were rinsed with 1% BSA in PBS three times, resuspended in PBS, and evaluated by a BD FACSCalibur flow cytometer (BD Biosciences). Quantification of cell surface antigen was determined with reference to Quantum Simply Cellular microbeads, using the protocol provided by the manufacturer.

For `COc1cccc2c1C(=O)c1c(O)c3c(c(O)c1C2=O)C[C@@](O)(C(=O)CO)C[C@@H]3O[C@H]1C[C@H](N)[C@H](O)[C@H](C)O1` [free Dox, doxorubicin], the “IC50 (cytotoxicity)” value [1] was 7.4 µg/mL (≈ 13.6 µM).

For “Rituximab: FDA-approved CD20 antibody for Non-Hodgkin's Lymphoma treatment”, the binding force [2] is given as 21±19 pN, the “binding force difference (NHL B cells minus normal red blood cells)” value ([3]; NHL B cells minus normal red blood cells) is given as 33 pN and the binding force ([3]; patient-derived NHL B cells, Li et al.) is given as 54±34 pN.

For methyl-beta-cyclodextrin [MCD], the “effect on average ICAM1 expression on cell surface” value [4] was “did not affect”.

Source: patent US20200308620A1, “PREDICTING TUMOR SPECIFICITY OF TARGETED THERAPEUTICS USING ATOMIC FORCE MICROSCOPY (AFM)” (Children's Medical Center Corporation, priority 2017, published 2020)
